{"source": "paper PMC10940318", "about": "“Targeted intracellular delivery of dimeric STINGa by two pHLIP peptides for treatment of solid tumors” (Frontiers in Pharmacology, 2024)", "key": {"[1]": {"target": "T1, human STING WT protein (Homo sapiens, UniProt Q86WV6)", "T1 construct": "purchased Cisbio", "T1 sequence (Q86WV6 whole entry)": "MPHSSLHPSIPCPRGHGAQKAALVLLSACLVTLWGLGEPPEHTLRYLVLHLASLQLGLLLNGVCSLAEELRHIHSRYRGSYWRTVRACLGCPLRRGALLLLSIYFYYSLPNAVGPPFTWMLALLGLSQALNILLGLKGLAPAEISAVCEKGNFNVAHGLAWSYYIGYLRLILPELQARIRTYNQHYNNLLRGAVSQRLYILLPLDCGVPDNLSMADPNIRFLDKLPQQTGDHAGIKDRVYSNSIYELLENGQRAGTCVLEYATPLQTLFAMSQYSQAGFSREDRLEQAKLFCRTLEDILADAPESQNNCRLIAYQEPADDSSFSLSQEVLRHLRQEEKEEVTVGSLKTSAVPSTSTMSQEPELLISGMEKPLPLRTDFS", "assay": "HTRF competitive binding to STING protein (human STING WT binding kit)", "details": "HTRF competitive assay, 6His-tagged human STING WT, d2-labelled ligand, 3 h RT; EC50 in method, IC50 in Fig. S1; read-out: binding affinity to STING protein", "method": "STING WT ligand d2 reagent was premixed with 6His Tb antibodies, and it was added to each well and the plate was incubated for 3 h at RT. Fluorescence intensities at 616 nm and 665 nm excited at […] were recorded on the SpectraMax ID5 plate reader (Molecular Devices). The homogeneous time resolved fluorescence (HTRF) ratio was calculated to establish the binding of each agent to the STING protein and to calculate EC50."}, "[2]": {"test_system": "THP-1-Blue-ISG cells polarized into M2-type macrophages", "assay": "Activation of IFN (IRF-SEAP reporter) in M2-polarized macrophages", "format": "cell-based, human", "details": "THP1-Blue-ISG cells polarized by PMA, IL-4/IL-13, 2 h in DMEM without FBS pH 6.9, then 48 h, QUANTI-Blue, absorbance 655 nm, read-out: EC50 of activation of IRF signaling", "method": "THP-1-Blue™-ISG cells (Invivogen) expressing an interferon (IFN) regulatory factor (IRF)-inducible secreted embryonic alkaline phosphatase (SEAP) reporter construct were used. Cells were maintained in RPMI growth medium supplemented with L-glutamine, sodium pyruvate, 10% fetal bovine serum (FBS), normocin and ciprofloxacin hydrochloride in a humidified atmosphere of 5% CO2 and 95% air at 37°C. Cells were seeded in 96-well plates at a density of 75,000 cells/well. To generate M2 polarized macrophages, cells were treated first with 185 ng/mL phorbol 12-myristate 13-acetate (PMA) for 6 h and then 20 ng/mL of interleukin 4 (IL-4) and 20 ng/mL of interleukin 13 (IL-13) (both from PeproTech) were added for another 16 h of treatment. […] After a 2-h incubation, an equal volume of RPMI supplemented with 20% heat-inactivated FBS was added, and cells were incubated for another 48 h. SEAP activity was accessed using the QUANTI-Blue™ Solution (Invivogen) to evaluate type I interferon protein levels: 150 μL of the colorimetric reagent was added to 50 μL of cell supernatant for 30 min, 37°C, followed by absorption measurement at 655 nm."}, "[3]": {"assay": "Stability in mouse plasma", "details": "BALB/c mouse plasma, 200 µM", "method": "Plasma proteins were precipitated by methanol (1:5 volume ratio of plasma to methanol) and centrifuged for 10 min at […]. The supernatant was collected and analyzed by HPLC using a Zorbax SB-C18 4.6 × 250 mm, 5 μm column with a gradient from 20% to 80% acetonitrile in water containing 0.05% TFA. Chromatograms were recorded at 220 nm, 280 nm and 325 nm."}, "[4]": {"test_system": "CT26 murine colorectal cancer tumors", "assay": "Treatment of CT26 tumors in mice", "format": "in vivo, Balb/c mice", "details": "two IP injections of 300 µM 500 µL on days 1 and 3; CT26 tumors", "method": "For the treatment of CT26 tumors, 5 × 10^4 CT26 murine colorectal cancer cells (ATCC, CRL-2638) were injected subcutaneously (SQ) in 100 μL of growth medium into the right flank of female Balb/c mice ranging in age from 7 to 9 weeks (Envigo RMS, Inc.). […] The compounds were dissolved in DMSO as a stock solution and transferred to PBS (vehicle). The residual DMSO in the final solution injected into animals was less than 2%. Tumor volume and body weight were measured 3 times per week throughout the study. Measurements of tumors were performed using calipers, and the tumor volume (V) was calculated with the formula: V=0.52∙L∙W^2 where L is the length and W is the width of the measured tumor. Mice were removed from the study and euthanized when the tumor volume was greater than 2,000 mm^3."}, "[5]": {"assay": "Self-immolation kinetics of the S-S linker and payload release after DTT, by HPLC", "format": "physicochemical", "details": "DTT in 50 mM phosphate buffer, 150 mM NaCl, pH 7.4; HPLC at 0.5-48 h, UV 220/280/325 nm", "method": "Figure S3. Kinetics of self-immolation of 2pHLIP-dMSA. […] Starting 2pHLIP-dMSA is shown on A.\nFigure S4. Self-immolation kinetics of pHLIP-mMSA. HPLC chromatograms recorded at 280 nm and 325 nm for pHLIP-mMSA treated with DTT dissolved in 50 mM phosphate buffer containing 150 mM NaCl pH 7.4 at different time points ([…]) after addition of DTT (A-G) and the retention time for mMSA (H) and pHLIP (I) are shown. Starting pHLIP-mMSA is shown on A."}, "[6]": {"assay": "Stability in human plasma", "format": "in vitro ADME", "details": "single donor human plasma, 200 µM, 0-24 h at 37°C, methanol precipitation, HPLC C18, UV 220/280/325 nm", "experimental": "Plasma proteins were precipitated by methanol (1:5 volume ratio of plasma to methanol) and centrifuged for 10 min at 13.4 rpm. The supernatant was collected and analyzed by HPLC using a Zorbax SB-C18 4.6 × 250 mm, 5 μm column with a gradient from 20% to 80% acetonitrile in water containing 0.05% TFA. Chromatograms were recorded at 220 nm, 280 nm and 325 nm."}, "[7]": {"assay": "Blood clearance (PK) by whole blood fluorescence imaging", "format": "in vivo, Balb/c mice", "details": "single RO injection of 2(ICG-pHLIP)-dMSA 50 µM 100 µL, CT26 tumor-bearing female Balb/c mice; whole blood fluorescence, exponential fit", "method": "(§1) For biodistribution studies 5 × 10^4 of CT26 cancer cells were injected SQ in 100 µL of growth medium into the right flank of female Balb/c mice and tumors were grown until they reached 150–250 mm^3 in volume. Then a single retro-orbital (RO) injection of 50 μM 100 μL of 2(ICG-pHLIP)-dMSA was performed. Animals were euthanized at 5 min, 1, 4, 24, 48, 72, and 120 h post-injection, blood was collected in K2 EDTA vacutainer blood collection tubes (BD), and necropsy was performed immediately after animals were euthanized. Blood, tumors and major organs (kidney, liver, spleen, pancreas, lung, heart, large and small intestines, bone, muscle, brain) were collected, and imaged ex vivo immediately after necropsy. Blood (200 µL) was imaged in 96-well plates with black bottom and walls.\n(§2) The in vivo and ex vivo bright field and near-infrared fluorescent imaging employed a Stryker 1588 AIM endoscopic system with L10 AIM Light Source (808 nm excitation and collection of light in the range of approximately of 815–850 nm), and a 1588 AIM Camera using a 10 mm scope. The lens was kept at a fixed distance from the surface of the organs, within an enclosed (light-protected) area. Calibration curves converting laser and gain settings were established by imaging of pHLIP-ICG solution at different concentrations. The ex vivo fluorescence imaging of tissue specimens was performed using three different laser settings and six different gain settings. The digital fluorescence images were split into RGB channels, with the green channel being analyzed using ImageJ program to calculate the average fluorescence intensity. All average intensities were adjusted based on their capture settings and using calibration curves to present fluorescence intensities corresponding to the unified (the same) settings."}, "[8]": {"test_system": "CT26 tumor", "assay": "Biodistribution and tumor targeting by ex vivo NIR fluorescence imaging", "format": "in vivo, Balb/c mice", "details": "single RO injection 50 µM 100 µL; ex vivo fluorescence at 1-120 h", "method": "as §1, with “Blood, tumors and major organs (kidney, liver, spleen, pancreas, lung, heart, large and small intestines, bone, muscle, brain) were collected, and imaged ex vivo immediately after necropsy. Blood (200 µL) was imaged in 96-well plates with black bottom and walls.” left out\nas §2, with “The lens was kept at a fixed distance from the surface of the organs, within an enclosed (light-protected) area. Calibration curves converting laser and gain settings were established by imaging of pHLIP-ICG solution at different concentrations.” left out"}}, "data": [{"molecule": "COc1cc2cc(C(=O)CCC(=O)O)sc2cc1OC", "note": "[mMSA, reference compound]", "values": [{"measurement": "IC50", "setting": "[1]", "result": 7.5, "unit": "µM"}, {"measurement": "EC50", "setting": "[2]", "result": 2.2, "unit": "µM"}, {"measurement": "time within which the cargo released from pHLIP underwent degradation in mouse plasma", "setting": "[3]; 37°C, HPLC C18, UV", "result": "≤ 24", "unit": "h"}, {"measurement": "therapeutic activity on animals (in words)", "setting": "[4]", "result": "did not demonstrate any activity"}]}, {"molecule": "ADQDNPWRAYLDLLFPTDTLLLDLLWCG [pHLIP-mMSA]", "values": [{"measurement": "time to completion of linker self-immolation and release of payload in its original form", "setting": "[5]", "result": "≤ 24", "unit": "h"}, {"measurement": "stability in human plasma (in words)", "setting": "[6]", "result": "very high"}, {"measurement": "stability in mouse plasma (in words)", "setting": "[3]; 0-24 h at 37°C, methanol precipitation, HPLC C18, UV 220/280/325 nm", "result": "low"}]}, {"molecule": "AKDQDNPWRAYLDLLFPTDTLLLDLLWCG [2(ICG-pHLIP)-dMSA, fluorescent version of 2pHLIP-dMSA with ICG dye on a lysine near the N-terminus of each pHLIP]", "values": [{"measurement": "blood clearance half-life", "setting": "[7]", "result": 32.2, "unit": "h"}, {"measurement": "accumulation in the tumor (in words)", "setting": "[8]", "result": "significant accumulation of the agent in the tumor from 1 h and up to 48 h"}, {"measurement": "organ and tissue clearances (in words)", "setting": "[8]", "result": "slow"}]}]}
